For orientation: Cmax means the highest concentration seen after dosing. A word on the IC50: it is the concentration that inhibits the measured activity by half. In general, AUC(0-t) refers to exposure summed from dosing to a finite time, without extrapolation to infinity. For orientation: inhibition means the percentage by which the read-out fell short of the control.

Results on eight compounds are retold here after patent US7407772B2, “Screening and selection methods for statin drug combinations” (Merck & Co., Inc., priority 2001, dated 2008).

Entries after “also recorded” stand apart in the source; their conditions may differ. Read-outs that look alike come from different tables or passages of the source.

In data set [1] the test system is human liver microsomes. Briefly: Glucuronidation assay: statin glucuronidation in human liver microsomes. Type of data set: in vitro ADME. As to conditions: preliminary data. In general terms: Liver microsomes are vesicles of endoplasmic reticulum, rich in cytochrome P450 enzymes.
Protocol: (§5) The term “glucuronidation assay” as used herein refers to the following assay when performed with human liver microsomes. […] Unless otherwise specified, the reaction was started by the addition of statins following a 3-min pre-incubation at 37° C., and the reaction was incubated for 45-60 min. Control experiments included incubation mixtures with either microsomes or UDPGA missing. The reaction was terminated, at appropriate time intervals, by the addition of 0.8 ml acetonitrile (ACN). […] The ability of statins to undergo glucuronidation was measured by formation of statin glucuronide and statin lactones, and expressed in term of intrinsic clearance (Clint). The CLint was estimated by dividing Vmax by apparent Km. The Km and Vmax values were estimated using a nonlinear regression program, based on a Michealis-Menten equation as follow: V=Vmax×C/(Km+C); V=formation rate of statin glucuronide+lactone, and C=substrate concentration. Incubations were performed in triplicate for human liver microsomes (pooled from n=10) or UGTs at 250-μM substrate concentration. Values are mean±SD (n=3 to 5).
Assay in data set [2]: as above
Protocol: as §5
Type of data set: in vitro ADME. The following applies: human, pH 7, read-out: intrinsic clearance of glucuronidation.

For data set [3], the system named is CYP3A (SVA, AVA); CYP3A and CYP2C8 (CVA). Briefly: in vitro. As to conditions: human, human liver microsomes, pH 7.4.
Protocol: For oxidative metabolism studies, a typical incubation mixture, in a final volume of 0.5 mL, contained 0.1-0.25 mg liver microsomal protein, 0.1M sodium phosphate buffer (pH 7.4), 10 mM MgCl2, and 1 mM NADPH. […] Incubations were conducted at 37° C. and were terminated after 10-20 min (with NADPH) by the addition of ACN (acetonitrile). The ACN extracts were evaporated to dryness and reconstituted for analysis by HPLC with UV detection.
In brief, samples, held in an autosampler set at 5° C., were chromatographed on either a Betasil C18 (250×4.6 mm, 5 μm) or a Zorbax C18 (Waters, 150×4.6 mm, 5 μm) column, preceded by a C18 guard column, with a linear gradient of acetonitrile in 10 or 25 mM ammonium acetate, pH 4.5. […] Due to unavailability of authentic standards for oxidative metabolites of statins, quantitation of these metabolites in the in vitro incubation mixtures was accomplished using standard curves for their respective statins, assuming identical extraction recoveries and extinction coefficients between the parent drug and its corresponding metabolites.
Data set [4] has as its system human recombinant UGT isoforms. Briefly: UGT-specific glucuronidation assay, identification of responsible isoforms. Type of data set: in vitro ADME. The protocol:
To examine UGT isoforms responsible for the glucuronidation of statins, incubations with various human recombinant UGT isoforms were performed using the same conditions as described herein for human liver microsomes in Example 1, except that the mixture contained 0.3 mg UGTs and was incubated for up to 60 min.

For data set [5] the following is noted: cited from earlier work; for Cmax: reported values following 600 mg bid gemfibrozil or 200 mg qd fenofibrate in humans; for increase of plasma AUC by gemfibrozil: humans, multiple oral doses of gemfibrozil, single oral dose of simvastatin or lovastatin.
Data set [6] has as its system glucuronidation of simvastatin acid (UDPGA-dependent). Briefly: Inhibition of simvastatin acid glucuronidation in dog liver microsomes. It counts as in vitro ADME. As to conditions: pH 7, probe simvastatin acid (10-20 μM).
Protocol: A typical incubation mixture, in a final volume of 0.3 ml, contained 0.45 mg human or animal liver microsomes, preincubated with 0.045 mg Brij 58 (or 0.0225 mg alamethicin) for 15 min, 20 mM MgCl2, 5 mM UDPGA, and 0.05 M Tris buffer, pH 7.0.
The nature of data set [7]: Pharmacokinetics after oral simvastatin in dogs pretreated with vehicle, gemfibrozil or fenofibrate. As to conditions: dog, in vivo.
Data set [8] concerns CYP3A-mediated oxidation of SVA. Briefly: in vitro. The following applies: human, pH 7.4. The method, then:
(§1) The term “oxidation inhibition assay” as used herein refers to the following assay when performed with human liver microsomal protein.
(§2) Incubations were performed in triplicate for each concentration of inhibitors, and involved co-incubation of GFZ or ketoconazole (1 μM) with statins (10-20 μM) in the presence of NADPH (oxidation) or UDPGA (glucuronidation).

Data set [9] relates to oxidation of CVA to O-demethylated metabolite M2. Briefly: in vitro. The following applies: human, pH 7.4. The protocol: as §1, §2
The test system of data set [10] is oxidative metabolism of AVA (NADPH-dependent). Briefly: in vitro. The following applies: human, pH 7.4. The method, then: as §1, §2
Data set [11] concerns oxidation of CVA to hydroxylated metabolite M1. The experiment in a line: in vitro. The following applies: human, pH 7.4. The protocol: as §1, §2
The conditions of data set [12]: dog, in vivo.
The test system of data set [13] is glucuronidation of CVA (UDPGA-dependent). Briefly: in vitro. The following applies: human, liver microsomes, pH 7, probe CVA (10-20 μM), IC50, CVA Glucuronidation, statin 10-20 μM, UDPGA. The method, then: (§3) The term “glucuronidation inhibition assay” as used herein refers to the following assay when performed with human liver microsomes.
(§4) The effects of inhibitors on metabolism of the statins were expressed as percentages of metabolites (statin glucuronides and lactones) formed in the presence of inhibitors relative to the corresponding values obtained in the absence of inhibitors (control) on the same day.
as §2

The subject of data set [14] is glucuronidation of RVA (UDPGA-dependent). The experiment in a line: in vitro. As to conditions: human, liver microsomes, pH 7, probe RVA (10-20 μM), IC50, RVA Glucuronidation, statin 10-20 μM, UDPGA. The method, then:
as §3, §4, §2

For data set [15], the system named is human liver microsomes. Briefly: in vitro. The protocol:
as §3, §4, §2

For data set [16], the system named is glucuronidation of SVA (UDPGA-dependent). Briefly: in vitro. The following applies: human, liver microsomes, pH 7, probe SVA (10-20 μM), IC50, SVA Glucuronidation, statin 10-20 μM, UDPGA. The protocol:
as §3, §4, §2

In data set [17] the test system is glucuronidation of AVA (UDPGA-dependent). The experiment in a line: in vitro. The following applies: human, liver microsomes, pH 7, probe AVA (10-20 μM), IC50, AVA Glucuronidation, statin 10-20 μM, UDPGA. The method, then:
as §3, §4, §2

Data set [18] concerns oxidative metabolism of simvastatin acid (NADPH-dependent). The experiment in a line: Inhibition of simvastatin acid oxidation in dog liver microsomes. As to conditions: pH 7.4, probe simvastatin acid (10-20 μM). It counts as in vitro ADME.
A short description of data set [19]: Clinical pharmacokinetics in humans (literature). Type of data set: in vivo. As to conditions: at their respective therapeutic doses.
A short description of data set [20]: Ex vivo simvastatin hydrolysis in dog plasma. It counts as in vitro ADME.
Another data set has as its target T1, CYP3A4 (Homo sapiens, UniProt P08684).
T1 construct: in human liver microsomes, an in vitro assay for determining hepatic CYP3A4 activity; host or cells: human liver microsomes
As to conditions: human liver microsomes; cited from earlier work.

For data set [21] the following is noted: dog, in vivo, po.
Data set [22] has as its system oxidation of CVA to metabolite M1. Briefly: in vitro. The following applies: human, pH 7.4. The method, then:
as §1, §2

Data set [23] deals with oxidative metabolism of SVA (NADPH-dependent). Briefly: in vitro. The following applies: human, pH 7.4. The protocol: as §1, §2
Data set [24] has as its system oxidation of CVA (both oxidative metabolites). The experiment in a line: in vitro. As to conditions: human, pH 7.4. The protocol:
as §1, §2

Data set [25] has as its system oxidation of CVA to metabolite M2. The experiment in a line: in vitro. The following applies: human, pH 7.4. The protocol:
as §1, §2

T1 sequence (P08684 whole entry): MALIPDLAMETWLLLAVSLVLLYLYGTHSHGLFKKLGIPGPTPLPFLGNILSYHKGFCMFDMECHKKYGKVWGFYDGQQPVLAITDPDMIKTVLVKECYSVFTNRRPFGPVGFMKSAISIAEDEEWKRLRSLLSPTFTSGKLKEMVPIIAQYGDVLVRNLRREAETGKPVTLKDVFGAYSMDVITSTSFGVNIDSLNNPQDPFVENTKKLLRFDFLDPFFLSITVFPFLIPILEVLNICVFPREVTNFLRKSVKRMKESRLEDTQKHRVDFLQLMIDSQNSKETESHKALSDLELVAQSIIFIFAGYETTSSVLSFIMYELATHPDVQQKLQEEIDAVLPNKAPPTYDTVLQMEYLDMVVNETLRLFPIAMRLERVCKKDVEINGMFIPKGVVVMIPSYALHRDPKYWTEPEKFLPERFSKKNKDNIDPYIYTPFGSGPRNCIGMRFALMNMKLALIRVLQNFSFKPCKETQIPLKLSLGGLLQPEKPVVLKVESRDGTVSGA

For the compound `COCc1c(C(C)C)nc(C(C)C)c(/C=C/[C@@H](O)C[C@@H](O)CC(=O)O)c1-c1ccc(F)cc1` [CVA, cerivastatin], in the data set with human liver microsomes [1], the “CLint, Glucuronidation” value was 2.9 ul/min/mg protein and the “Relative Contribution of glucuronidation to overall metabolism” value is reported as 22. The microsomal CLint in data set [2] came to 2.9 µL/min/mg. The compound also came in with a microsomal CLint in data set [3] of 10 µL/min/mg.
With `CC(C)OC(=O)C(C)(C)Oc1ccc(C(=O)c2ccc(Cl)cc2)cc1` [Fenofibrate, fenofibrate], the “UGT isozymes catalyzing glucuronidation of the substance” value (“UGT isozymes catalyzing glucuronidation” below) in data set [4] was “UGT1A9 and isoforms of the UGT2B subfamily”. The Cmax in [5] was 15 to 55 µM.
`CC(C)(Oc1ccc(C(=O)c2ccc(Cl)cc2)cc1)C(=O)O` [Fenofibric acid, fenofibric acid] showed an IC50 in data set [6] of 283 µM. Further, the Cmax in data set [7] (Cmax of fenofibric acid, fenofibrate treated) amounted to 77 ± 9.7 µM.
With `Cc1ccc(C)c(OCCCC(C)(C)C(=O)O)c1` [Gemfibrozil, gemfibrozil], the IC50 in data set [6] was 195 µM; in data set [8] it was greater than 800 µM; in [9], 220 µM; in [10], greater than 750 µM; in data set [11], 87 µM; in [13] it was 82 µM. The IC50 was roughly 400 µM in data set [14]; 316 µM with human liver microsomes [15] (read-out: IC50, AVA Glucuronidation, statin 10-20 μM, UDPGA); 354 µM in data set [16]; 314 µM in [17]; roughly 1000 µM in data set [18]. Further, in [12], the “decrease in the biliary excretion of simvastatin-glucuronide” value is on record as roughly 2 fold. In the data set with human liver microsomes [15], the “mode of inhibition of simvastatin acid glucuronidation” value is given as “competitive inhibition”. Besides, the “UGT isozymes catalyzing glucuronidation” value in data set [4] is “UGT1A1 and 1A3”. For the same compound, the “exposure in humans relative to fenofibrate/fenofibric acid” value in data set [19] is given as greater than 2 fold. Besides, the results for the “effect on ex vivo simvastatin hydrolysis” value in data set [20] and in data set [20] (listed as gemfibrozil) were “Minimal effect” and “did not affect”, respectively. Moreover, on CYP3A4, the “effect on CYP3A4 mediated 1'-hydroxylation of midazolam” value was “no appreciable inhibitory effect”. Also, the highest concentration (Cmax) in [5] was 100 to 300 µM; in data set [7] (po, 75 mg/kg, Cmax of gemfibrozil, gemfibrozil treated (75 mg/kg bid for 5 days)), 446 ± 66 µM. Moreover, the AUC(0-t) in data set [7] (po, 75 mg/kg, AUC 12 hr of gemfibrozil, gemfibrozil 75 mg/kg bid for 5 days) came out at 1440 ± 176 µM·h. In data set [21], the “SVA/SV AUC ratio, Gem/vehicle” value was found to be 5.4 ± 2.1.
As to `CC(=O)N1CCN(c2ccc(OCC3COC(Cn4ccnc4)(c4ccc(Cl)cc4Cl)O3)cc2)CC1` (stereo not drawn) [Ketoconazole, ketoconazole], the inhibition at 1 µM in [10] is greater than 90%; in data set [22], 68%; in data set [23], greater than 85%; in [24], no more than 50%; in data set [25] it was roughly 50%.
With `CCC(C)(C)C(=O)O[C@H]1C[C@@H](C)C=C2C=C[C@H](C)[C@H](CC[C@@H](O)C[C@@H](O)CC(=O)O)[C@H]21` [Simvastatin acid, simvastatin acid], in data set [4] (listed as SVA), the “UGT isozymes catalyzing glucuronidation” value was “UGT1A1 and 1A3; also recorded: UGT1A10”. Further, the “increase of plasma AUC by gemfibrozil” value in [5] is reported as 185%.
`CC[C@H](C)C(=O)O[C@H]1C[C@@H](C)C=C2C=C[C@H](C)[C@H](CC[C@@H](O)C[C@@H](O)CC(=O)O)[C@H]21` [lovastatin acid]: the “increase of plasma AUC by gemfibrozil” value in data set [5] is reported as 280%.
On to `CC[C@H](C)C(=O)O[C@H]1C[C@@H](C)C=C2C=C[C@H](C)[C@H](CC[C@@H]3C[C@@H](O)CC(=O)O3)[C@H]21` [lovastatin lactone, lovastatin], for which, in data set [5], the “increase of plasma AUC by gemfibrozil” value is recorded as “no significant effect”.
